Where two headings read alike, the source gives them in different places.
Key:
[1] = tested on: rat peripheral blood leukocytes; experiment: Rat chemokine-induced PBMC migration assay; assay type: cell-based; conditions: Table 3
Panc-2H4 cells = experiment: Human Panc-2H4 insulin suppression assay; assay type: cell-based; conditions: Table 3
From the text: (§1) Two different assays for “classical” sstr2 functions were adopted: (1) cultured foetal rat pituitary cells secreted growth hormone which is inhibited by sstr2 agonists in a dose-dependent fashion and (2) selected glucose-sensitive sub-clones of the human Panc-1 cell line secrete insulin which is inhibited by sstr2 agonists in a dose-dependent fashion.
Glucose-sensitive sub-clones of the human Panc-1, a cell line derived from a pleiomorphic epithelioid carcinoma of the exocrine pancreas, were obtained essentially as described by Hamil et al. (2008) Biomed. Sci. Instrum. 44:441-6. Briefly, Panc-1 cells were subcultured in 24 well plates, and the medium was supplemented with an additional 5% glucose. […] The resulting sub-lines were then tested for glucose sensitivity by preparing wells of a 96-well plate (5×10^4 cells per well) which were then exposed to cultured medium containing a range of glucose concentrations (low glucose DMEM, DMEM, DMEM+1% glucose, DMEM+2.5% glucose and DMEM+5% glucose). After 24 hrs incubation, the conditioned medium was collected and assayed for insulin secretion by ELISA (Linco; cat# EZHI-14K) in accordance with the manufacturer's instructions.
Further 96 well plates were prepared using Panc-2H4 (5×10^4 cells per well) in DMEM. After 24 hrs, the medium was switched to DMEM+5% glucose containing various test agents at various concentrations (triplicate wells per condition). After a further 24 hrs, the conditioned medium was harvested and the concentration of insulin was determined by ELISA as described above.
(§2) Results were reported as the mean±SD, expressed as the fold change from cells in the presence of vehicle only.

fetal rat pituicytes = experiment: Rat pituicyte GH suppression assay; assay type: cell-based
From the text: as §1
Methods: Cultures of fetal rat pituicytes were established exactly as previously described (Murray et al. (2004) J. Clin. Endocrinol. Metab. 89:3027-32) by enzymatic dispersion. After 48 hrs in low glucose DMEM plus 10% FCS, cells in 48 well plates (5×10^4 cells per well) were washed for 4 hrs in serum-free DMEM and then incubated with test agents at various concentrations for a further 24 hrs in serum-free DMEM. At the end of this period, the conditioned medium was harvested, any cell debris removed by centrifugation and assayed for GH using a commercially available ELISA (Linco; cat# EZRMGH-45K) in accordance with the manufacturer's instructions.
as §2

sstr2 = target: T1, sstr2 (Homo sapiens, UniProt P30874); experiment: Equilibrium binding of [3H]-BN83250 to THP-1 cells
T1 construct: with 1×10^6 THP-1 cells in Gey's Balanced Salt Solution; endogenous in cells; host or cells: THP-1 cells (whole cells, 4° C.)
Procedure: Methods: [^3H]-BN83250 was synthesesized from (S,E)-3-(2′,2′-dimethyldodec-4′-enoylamino)-caprolactam by catalytic hydrogenation using tritium gas over a palladium catalyst (CRB Ltd, Cleveland, UK), yielding the tritiated product at a concentration of […] in ethanol with a specific activity of 220 Ci/mmol. The (S,E)-3-(2′,2′-dimethyldodec-4′-enoylamino)-caprolactam was prepared as follows: (S,S)-3-amino-caprolactam hydro-pyrrolidine-5-carboxylate (10 mmol) and Na2CO3 (30 mmol) in water (30 ml) were added to a solution of 2,2-dimethyl-dodec-4-enoyl chloride (10 mmol) in dichloromethane (30 ml) at ambient temperature and the reaction was stirred for 12 hours. The organic layer was then separated and the aqueous phase was extracted with additional dichloromethane (2×25 ml). The combined organic layers were dried over Na2CO3 and reduced in vacuo. The residue was purified by silica column chromatography (1:1 EtOAc:hexanes to EtOAc) to give […]-3-(2′,2′-dimethyl-dodec-4′-enoyl)amino-caprolactam as a colourless oil (2.12 g, 63%). The radiolabelled compound was stored in the dark at 4° C. until required. Prior to use the specific activity was adjusted by addition of unlabelled BN83250.
For the analysis of binding, individual reactions were set up (in triplicate for each condition), with 1×10^6 THP-1 cells in Gey's Balanced Salt Solution, 10 nM [^3H]-BN83250 (at 50 Ci/mmol) and various concentrations of (S)-3(2′2′-dimethylpropionoylamino)-tetrahydropyridin-2-one (10 pM to 10 μM). Excess (100 μM) unlabelled BN83250 was used to determine the level of non-specific binding. After 2 hours at 4° C. (conditions previously shown to achieve equilibrium binding, and which prevent uptake of the radioligand that would result in an over-estimate of binding) excess label was washed away by centrifugation (3 washes with 5 ml of Gey's Balanced Salt Solution) and the bound radioactivity was determined by scintillation counting of the solubilised cell pellet.

THP-1 cells = experiment: MCP-1 induced THP-1 cell migration, Transwell assay; assay type: cell-based, human
Procedure: Leukocyte migration was measured using the 96-well format micro Transwell® assay system from Neuroprobe (Gaithersburg, Md., USA). In principle, this assay consists of two chambers separated by a porous membrane. The chemoattractant is placed in the lower compartment and the cells are placed in the upper compartment.
The method was performed essentially as previously described (Reckless & Grainger (1999) Biochem. J. 340:803-11).
First, the cell suspension to be placed in the upper compartment was prepared. The THP-1 cells were pelleted by centrifugation (770×g; 4 mins) and washed with Geys Balanced Salt Solution with 1 mg/ml BSA (GBSS+BSA). This wash was then repeated, and the cells re-pelleted before being resuspended in a small volume of GBSS+BSA for counting, for example using a standard haemocytometer.
The volume of GBSS+BSA was then adjusted depending on the number of cells present so that the cells were at final density of 4.45×10^6 cells per ml of GBSS+BSA. This ensured that there were 100,000 THP-1 cells in each 25 μl of the solution to be placed in the upper chamber of the plate.
The suspension of THP-1 cells at 4.45×10^6 cells/ml was divided into three pots. […] To the second pot, the BSCI was added at the same concentration as in the first pot, but additionally the sstr2 antagonist was also added (for example BIM 23454 [Tulipano et al. (2002) 143:1218-24] or BIM 23627 were added at 66 nM final concentration from a stock solution in GBSS). To the third pot, GBSS+BSA plus vehicle as appropriate was added so that the volumes in three pots are equal, acting as a control.
Next, the chemoattractant solution to be placed in the lower compartment was prepared. MCP-1 was diluted in GBSS+BSA to give a final concentration of 25 ng/ml (after all additions). Note that, as recommended by Frow et al (Med. Res. Rev. 24:276-98) this is the concentration of MCP-1 which induces maximal migration in this system. This solution was divided into three pots, as for the cell suspension. To one pot, the BSCI was added to the same final concentration as was added to the cell suspension, in the second pot the BSCI and the sstr2 antagonist were both added at the same concentration as previously added to the cell suspension, while to the remaining pot GBSS+BSA plus vehicle as appropriate was added so that the volumes in the three pots were equal.
Once the chemoattractant solutions for the lower wells and cell solutions for the upper chambers were prepared, the migration chamber was assembled. 29 μl of the appropriate chemoattractant solution was placed into the lower well of the chamber. Assays were performed with at least triplicate determinations of each condition. Once all the lower chambers were filled, the porous membrane was applied to the chamber in accordance with the manufacturer's instructions. Finally, 25 μl of the appropriate cell solution was applied to each upper chamber. A plastic lid was placed over the entire apparatus to prevent evaporation.
The assembled chamber was incubated at 37° C., 5% CO2, for 2 hours.
At the end of the incubation, the liquid cell suspension was gently removed from the upper chamber, 20 μl of ice-cold 20 mM EDTA in PBS was added to the upper chamber, and the apparatus was incubated at 4° C. for 15 mins. This procedure caused any cells adhering to the underside of the membrane to fall into the lower chamber.
After this incubation the filter was carefully flushed with GBSS+BSA to wash off the EDTA, and then the filter was removed.
The number of cells migrated into the lower chamber under each condition can then be determined by a number of methods, including direct counting, labelling with fluorescent or radioactive markers or through the use of a vital dye. Typically, we utilised the vital dye MTT.

leukocytes = experiment: Chemokine-induced leukocyte migration (cells not specified); assay type: cell-based; conditions: description b37, b38
5HT2a = conditions: rodents, cited from earlier work
α2-adrenoreceptor [2] = conditions: radioligand RS-79948-197; Grainger et al. (2005); read-out: Apparent affinity at α2-adrenoreceptor; cited from earlier work
α2-adrenoreceptor [3] = target: T2, α2-adrenoreceptor; experiment: [3H]-dihydroergocryptine binding to α2-adrenoreceptor membranes; conditions: 5 nM [3H]-DHE
T2 construct: other: 5 nM [3H]-DHE
Procedure: Methods: Radioligand binding experiments were performed with commercially available membrane preparations from cells expressing the α2-adrenoreceptor (Sigma) in accordance with the manufacturer's instructions. […] Experiments were performed in triplicate, and non-specific binding was determined in the presence of an excess (10 μM) of oxymetazoline.

Jurkat T cells = experiment: SDF-1α induced migration of parental Jurkat T cells; assay type: cell-based, human
Procedure: Results: The level of the SDF-1α, receptor CXCR4 was similar on Jurkat-D3B and the parental Jurkat T cell line. Furthermore, the Jurkat-D3B cells responded to SDF-1α in a Transwell® chemotaxis assay (see Example 1 for the methodology employed) over a similar concentration range to the parental cell line.
Jurkat T cells and Jurkat-D3B cells were induced to migrate in response to 100 ng/ml SDF-1α (R&D systems; the concentration of SDF-1α which induced maximal cell migration in both lines). The BSCI BN83250 was then added at various concentrations between 0 nM and 1000 nM (each in triplicate) to both the upper and lower compartments (at the same concentration in each compartment, so as not to create a gradient of BSCI concentration). DMSO (1% final concentration) was used as the vehicle, and was present in all wells at equal concentration.

platelets = experiment: ADP-mediated platelet activation/aggregation; assay type: cell-based
5HT2a receptor = target: T3, 5HT2a receptor (Homo sapiens, UniProt P28223); experiment: [3H]-ketanserin binding to 5HT2a receptor membranes
T3 construct: purchased Sigma
Procedure: Methods: Radioligand binding experiments were performed with commercially available membrane preparations from cells expressing the 5HT2a receptor (Sigma) in accordance with the manufacturer's instructions. [^3H]-ketanserin was used as the radioligand probe (according to the method of Leysen et al. (1988) Pharmacol. Exp. Therap. 244:310-21) at 1 nM concentration (0.05 μCi per reaction). Experiments were performed in triplicate, and non-specific binding was determined in the presence of an excess (10 μM) of metergoline (a relatively non-specific ergot-derived serotonin receptor antagonist).

α2-adrenoreceptor [4] = experiment: Blood pressure; assay type: in vivo; conditions: description b37
[5] = target: type 2 somatostatin receptor (sstr2), human (human) (UniProt P30874); experiment: cell-based or functional assay
type 2 somatostatin receptor (sstr2), human (human), sequence (P30874 whole entry): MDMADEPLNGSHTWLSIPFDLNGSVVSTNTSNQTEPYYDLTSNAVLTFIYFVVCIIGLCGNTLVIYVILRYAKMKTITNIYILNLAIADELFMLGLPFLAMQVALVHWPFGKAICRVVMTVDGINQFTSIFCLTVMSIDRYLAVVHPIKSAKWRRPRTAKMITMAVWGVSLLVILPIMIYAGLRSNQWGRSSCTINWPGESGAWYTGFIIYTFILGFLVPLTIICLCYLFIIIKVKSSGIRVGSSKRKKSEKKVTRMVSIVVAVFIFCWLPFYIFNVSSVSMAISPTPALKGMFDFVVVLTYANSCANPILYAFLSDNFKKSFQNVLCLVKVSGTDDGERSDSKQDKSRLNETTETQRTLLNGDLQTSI

T3 sequence (P28223 whole entry): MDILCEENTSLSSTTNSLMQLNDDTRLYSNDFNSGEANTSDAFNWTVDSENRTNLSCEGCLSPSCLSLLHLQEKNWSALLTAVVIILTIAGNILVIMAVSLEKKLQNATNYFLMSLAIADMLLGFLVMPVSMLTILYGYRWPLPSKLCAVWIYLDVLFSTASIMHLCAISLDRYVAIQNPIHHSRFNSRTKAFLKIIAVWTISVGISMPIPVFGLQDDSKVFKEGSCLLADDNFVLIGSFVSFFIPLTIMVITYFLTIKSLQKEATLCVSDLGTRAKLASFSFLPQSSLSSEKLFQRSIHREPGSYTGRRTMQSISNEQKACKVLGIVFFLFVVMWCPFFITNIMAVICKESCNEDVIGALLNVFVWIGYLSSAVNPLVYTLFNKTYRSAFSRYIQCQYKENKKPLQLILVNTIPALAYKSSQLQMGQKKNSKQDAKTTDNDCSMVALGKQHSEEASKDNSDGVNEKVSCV
T1 sequence (P30874 whole entry): as the sequence (P30874 whole entry) above

With O=C1NCCCC[C@@H]1NC(=O)C12CC3CC(CC(C3)C1)C2 [BN83470, (S)-3-(admantane-1′-carbonylamino)-caprolactam] the “Rat chemokine-induced PBMC migration assay Max effect” value [1] was 100%, the EC50 (Panc-2H4 cells; read-out: Human Panc-2H4 insulin suppression assay ED50) was > 1000 nM and the “Human Panc-2H4 insulin suppression assay Max effect” value (Panc-2H4 cells; suppression compared to vehicle) was <10%. The “Inhibition of GH release, in words” value (fetal rat pituicytes) was “inhibited GH release only at much higher concentrations”, the EC50 (fetal rat pituicytes; Table 3, read-out: Rat pituicyte GH suppression assay ED50) was 270 nM and the “Rat pituicyte GH suppression assay Max effect” value (fetal rat pituicytes; Table 3, suppression compared to vehicle) was 56%. The “Competition with BN83250 binding to sstr2, in words” value (sstr2) was “compete with BN83250 binding to sstr2 to a similar extent” and the “Human chemokine-induced THP-1 migration assay Max effect” value (THP-1 cells; Table 3) was 100%.

In the case of COc1cc(Br)c(OC)c2c1[C@H](CN)C2 [TCB-2], the “Effect on chemokine-induced leukocyte migration, in words” value (leukocytes) is given as “no effect on chemokine-induced leukocyte migration”, the “Head twitching by classical 5HT2a agonists” value (5HT2a) is given as “induce this classical effect” and the “Head twitching by classical 5HT2a agonists” value (5HT2a; listed as TCB2) is given as “powerfully induces head twitch”.

In the case of NC(=O)C1CCC[C@H]2CN3CCc4c([nH]c5ccccc45)[C@@H]3C[C@H]12 (stereo partly drawn) [Yohimban-16-amide], the Ki (α2-adrenoreceptor [2]) is given as 770 nM, the “Apparent Ka, inhibition of [3H]-DHE binding” value (α2-adrenoreceptor [3]) is given as 89 ± 13 nM and the “Inhibition of SDF-1α induced migration of Jurkat T cells, in words” value (Jurkat T cells) is given as “neither agent inhibits”. The “Effect on ADP-mediated platelet activation/aggregation” value (platelets) was “no effect on the activation of platelets in response to ADP”.

For CN1C[C@H](C(=O)O)C=C2c3cccc4[nH]cc(c34)C[C@H]21 [lysergic acid], the Ki (5HT2a receptor) was 49 ± 12 nM, the “Inhibition of SDF-1α induced migration of Jurkat T cells, in words” value (Jurkat T cells) was “neither agent inhibits” and the “Inhibition of MCP-1 induced THP-1 cell migration, in words” value (THP-1 cells; MCP-1 25 ng/ml) was “neither agent inhibits”.

In the case of COC(=O)[C@H]1[C@H]2C[C@@H]3c4[nH]c5cc(OC)ccc5c4CCN3C[C@H]2C[C@@H](OC(=O)c2cc(OC)c(OC)c(OC)c2)[C@@H]1OC [reserpine], the “Effect on blood pressure” value (α2-adrenoreceptor [4]) is reported as “powerfully lowers blood pressure” and the “Effect on chemokine-induced leukocyte migration, in words” value (leukocytes) is reported as “no effect on chemokine-induced leukocyte migration”.

cortistatin (peptide) showed an ED50 for inhibition of MCP-1 induced THP-1 cell migration [5] of 75 nM.
